Measured values reported in patent US20250250237A1, “ALKYLAMINE OR HETEROALKYLAMINE DERIVATIVES AS INHIBITORS OF NITRIC OXIDE SYNTHASES (NOS), PHARMACEUTICAL PRODUCTS THEREOF, AND METHODS THEREOF” (Gacter Inc., priority 2022, published 2025).
Values after ≈ are worked out from the molar mass of the structure shown.

Assays:
[1] = system: rats; conditions: doses as low as 10 mg/kg; cited from earlier work
[2] = system: mice; conditions: doses as low as 10 mg/kg; cited from earlier work
[3] = Kinetic solubility assay (HPLC external standard); format: physicochemical; conditions: PBS pH 7.4 with 2% DMSO, PBS pH 7.4, 2% DMSO, 37° C.
Protocol: This kinetic solubility assay assesses our compounds in pH 7.4 PBS, mimicking physiological conditions relevant to oral absorption and tumor targeting. Test solutions were prepared by mixing 10 μL of stock with 490 μL of PBS (pH 7.4, 2% DMSO), followed by shaking at 37° C. for 3 hours, centrifugation, and a 2× dilution with methanol. Solubility was quantified in μM using HPLC analysis on a C18 column at 35° C., with a 5-85% acetonitrile gradient and 20 μL injections, performed in duplicate.
The assay was conducted using a modified HPLC-based external standard method. For Solution Preparation, (1) Buffer: Phosphate-buffered saline (PBS) at pH 7.4; (2) Compound Stock Solutions: 10 mM concentration in DMSO; (3) Test Solutions: Mix 10 μL of the stock solution with 490 μL of PBS in a 2 mL EP tube (final 2% DMSO v/v), shake at 37° C. for 3 hours, centrifuge at 12,000 RPM for 5-10 minutes, take 100 μL of supernatant, add 100 μL methanol, mix well to use as the test solution. […] For Data Analysis, concentration calculations are based on peak area ratios, accounting for the 2× dilution factor.

SMILES | acute toxicity [1] | acute toxicity [2] | solubility at 3 h [3] [µM]
N=C(N)SCCc1ccc(CCSC(=N)N)cc1 [PBIT, S,S′-1,4-phenylene-bis(1,2-ethanediyl)bis-isothiourea] | acutely toxic | acutely toxic | 
CNCC[C@@H](Oc1cc(Cl)cc2[nH]cnc12)c1ccccc1 [GT-6058, (R)-3-((6-chloro-1H-benzo[d]imidazol-4-yl)oxy)—N-methyl-3-phenylpropan-1-amine] |  |  | 177 (≈ 55.8 µg/mL)
OCCNCC[C@@H](Oc1cc(Cl)cc2[nH]cnc12)c1ccccc1 [GT-6060, (R)-2-((3-((6-chloro-1H-benzo[d]imidazol-4-yl)oxy)-3-phenylpropyl)amino) ethan-1-ol] |  |  | 176 (≈ 60.8 µg/mL)
NCC[C@@H](Oc1cc(Cl)cc2[nH]cnc12)c1ccccc1 [GT-6041, (R)-3-((6-chloro-1H-benzo[d]imidazol-4-yl)oxy)-3-phenylpropan-1-amine] |  |  | 157 (≈ 47.3 µg/mL)
NCC[C@@H](Oc1cc(Cl)cc2[nH]ncc12)c1ccccc1 [GT-6045] |  |  | 188 (≈ 56.9 µg/mL)
CNCC[C@@H](Oc1cc(Cl)cc2[nH]ncc12)c1ccccc1 [GT-6059, (R)-3-((6-chloro-1H-indazol-4-yl)oxy)—N-methyl-3-phenylpropan-1-amine] |  |  | 169 (≈ 53.5 µg/mL)
